Drawing on US20160272645A1, “Heterocyclic Compounds and Methods of Use” (MEDIVATION TECHNOLOGIES, INC., priority 2013, published 2016), this text covers inhibition and IC50 for five compounds.

In general, IC50 refers to the concentration that inhibits the measured activity by half.

One assay addresses T1, BTK (Homo sapiens, UniProt Q06187).
T1 construct: purchased Reaction Biology Corporation
Briefly: BTK kinase profiling, HotSpot radiometric assay (Reaction Biology). In kind it is biochemical. The conditions noted are these: ATP 10 μM; for inhibition at 0.1 µM: compound 0.1 μM, read-out: BTK @ 0.1 μM (% Inh); for inhibition at 1 µM: compound 1 μM, read-out: BTK @ 1 μM (% Inh); for inhibition at 0.01 µM: compound 0.01 μM, read-out: BTK @ 0.01 μM (% Inh). The procedure: (§1) Compounds of the invention were profiled in a 10 dose IC50 panel against BTK and PI3Kδ, both provided by Reaction Biology Corporation.
BTK assay: In vitro profiling protein kinases was performed using the “HotSpot” assay platform. Briefly, specific kinase/substrate pairs along with required cofactors were prepared in reaction buffer. Compounds were prepared as 10 mM stock solutions in DMSO. Compounds were delivered into the reaction, followed 15-20 minutes later by addition of a mixture of ATP (Sigma, St. Louis Mo.) and ^33P ATP (Perkin Elmer, Waltham Mass.) to a final concentration of 10 μM. Reactions were carried out at RT for 120 min, followed by spotting of the reactions onto P81 ion exchange filter paper (Whatman Inc., Piscataway, N.J.). Unbound phosphate was removed by extensive washing of filters in 0.75% Phosphoric acid. […] ICso values and curve fits were obtained using Prism (GraphPad Software). Buffer Conditions: 20 mM Hepes (pH 7.5), 10 mM MgCl2, 1 mM EGTA, 0.02% Brij35, 0.02 mg/mL BSA, 0.1 mM Na3VO4, 2 mM DTT, 1% DMSO.

Assay [1] has as its target T2, PI3Kδ (Homo sapiens, UniProt O00329).
T2 construct: purchased Reaction Biology Corporation
The experiment in a line: PI3Kδ kinase profiling, HTRF PIP3 displacement assay (Reaction Biology). In kind it is biochemical. The conditions noted are these: compound 1 μM; ATP 10 μM; read-out: PI3Kδ @ 1 μM (% Inh).
Source text: as §1
PI3Kδ assay: The PIP3 product is detected by displacement of biotin-PIP3 from an energy transfer complex consisting of Europium labeled anti-GST monoclonal antibody, a GST-tagged pleckstrin homology (PH) domain, biotinylated PIP3 and Streptavidin-Allophycocyanin (APC). Excitation of Europium in the complex results in an energy transfer to the APC and a fluorescent emission at 665 nm. The PIP3 product formed by PI3-Kinase (h) activity displaces biotin-PIP3 from the complex resulting in a loss of energy transfer and thus a decrease in signal. This is a 3-step reaction: First, the kinase reaction with PIP2 substrate is carried out in the presence of ATP (10 μM), and the reaction is quenched with stop Solution, and then finally detect by adding Detection Mixture followed by incubation (10 min). Reaction procedure: 1) Prepare substrate in freshly prepared Reaction Buffer. 2) Deliver kinase into the substrate solution and gently mix. 3) Deliver compounds in 100% DMSO (1 μM) into the kinase reaction mixture by Acoustic technology (Echo550; nanoliter range), incubate for 10 min at RT. 4) Deliver ATP into the reaction mixture to initiate the reaction. 5) Incubate for 30 min at 30° C. 6) Quench the reaction with Stop Solution. 7) Add Detection Mixture, and incubate for overnight. 8) Measure HTRF: Ex=320 nm, ratio of Em=615 nm and Em=665 nm. The emission ratio is converted into μM PIP3 production based on PIP3 standard curves. The nonlinear regression to obtain the standard curve and IC50 values are performed using Graphpad Prism software. Assay Buffer: HEPES 50 mM (pH7.0), NaN3 0.02%, BSA 0.01%, Orthovanadate 0.1 mM, 1% DMSO. Detection buffer: HEPES 10 mM (pH7.0), BSA 0.02%, KF 0.16 M, EDTA 4 mM. Substrate: 10 μM PIP2 substrate (PI(4,5)P2).
For orientation: TR-FRET usually uses a lanthanide donor and a delayed reading to cut background.

The test system of assay [2] is CD69+B220+ cells (mouse spleen cells). The experiment in a line: B cell activation assay (IgD-stimulated CD69 on B220+ spleen cells, FACS). The format is cell-based. As to conditions: 100 nM test compound, 30 min, then IgD 3 μg/mL 4 h, read-out: CD69 @ 100 nM (% Inh). The procedure:
1 Female mouse approximately 2 months old was euthanized with CO2 and the spleen removed. The tissue was homogenized with a polished glass microscope slide. The cells were collected in 5 mL complete medium (RPMI+10% FBS+pen/strep), placed in a 15 mL falcon tube and centrifuged at 500×g for 5 min. The supernatant was discarded and the pellet was resuspended in 3 mL of ACK lysis buffer (NH4Cl 0.17M, KHCO3 10 mM, EDTA-Na2 0.1 mM, pH 7.2), incubated at 37° C. for 5 min. 2 mL complete medium was added and the mixture centrifuged at 500×g for 5 min. The supernatant was discarded and the pellet resuspended in 1 mL complete medium. The mixture was passed through a […] cell strainer and collect in 50 mL falcon tube. Enough medium was added to have a total of 10 mL. The cells were counted and seeded in 24 or 48-well plate in 1 mL complete medium at 10^6 cells/mL. The plate was placed in a 37° C. incubator for 15 min. The cells were treated for 30 min at 37° C. with 100 nM test compound dissolved in 100% DMSO. 3 μL IgD (Accurate chemical and scientific corp.) was added at a final concentration of 3 μg/mL and the mixture incubated at 37° C. for 4 h. The cells were collected in 1.5 mL eppendorf tubes, centrifuged at 500×g for 5 min and then resuspended in 100 μL of PBS+2% FBS. The following antibodies were added: α-B220 PE (pharmingen #553090), α-CD69 APC (pharmingen #60689), live/dead fixable aqua dead cell stain kit (life technologies # L34957) all at 1:300, and the mixture incubated for 15 min at 4° C. in the dark. To this was added 900 μL of PBS+2% FBS and the mixture centrifuged at 500×g for 5 min. The supernatant was removed and the pellet resuspended in 300 μL of PBS+2% FBS and mixed well. The mixture was transferred to a cytometer tube. The samples were run in the FACS Canto II cytometer and quantified by the number of CD69+B220+ cells as a percentage of the total number of B220+ alive cells.

The test system is the same in assay [3]. The assay is described as above. The format is cell-based. As to conditions: IgD 3 μg/mL 4 h.
In assay [4] the target is T2, PI3Kδ. The experiment in a line: PI3Kδ kinase profiling, HTRF PIP3 displacement assay (Reaction Biology). In kind it is biochemical. As to conditions: ATP 10 μM; for inhibition at 0.1 µM: compound 0.1 μM, read-out: PI3Kδ @ 0.1 μM (% Inh); for inhibition at 0.01 µM: compound 0.01 μM, read-out: PI3Kδ @ 0.01 μM (% Inh).

T1 sequence (Q06187 whole entry): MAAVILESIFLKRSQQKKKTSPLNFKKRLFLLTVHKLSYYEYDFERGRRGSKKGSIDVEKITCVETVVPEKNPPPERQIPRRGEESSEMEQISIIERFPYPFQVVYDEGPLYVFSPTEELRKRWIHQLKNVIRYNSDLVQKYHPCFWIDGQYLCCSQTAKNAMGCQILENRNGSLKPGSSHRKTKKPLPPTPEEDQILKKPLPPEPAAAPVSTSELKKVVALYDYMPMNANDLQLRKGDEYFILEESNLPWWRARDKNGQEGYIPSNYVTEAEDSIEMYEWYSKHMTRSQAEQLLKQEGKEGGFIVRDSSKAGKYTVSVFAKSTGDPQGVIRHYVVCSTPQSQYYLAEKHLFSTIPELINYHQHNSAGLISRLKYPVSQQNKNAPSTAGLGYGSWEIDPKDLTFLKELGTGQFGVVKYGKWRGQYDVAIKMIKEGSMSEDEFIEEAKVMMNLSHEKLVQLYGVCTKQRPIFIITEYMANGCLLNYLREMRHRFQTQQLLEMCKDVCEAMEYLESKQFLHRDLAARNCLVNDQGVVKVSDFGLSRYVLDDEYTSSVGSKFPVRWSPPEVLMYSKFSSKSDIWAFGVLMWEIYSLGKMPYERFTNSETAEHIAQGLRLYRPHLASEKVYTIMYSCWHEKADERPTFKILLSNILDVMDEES
T2 sequence (O00329 whole entry): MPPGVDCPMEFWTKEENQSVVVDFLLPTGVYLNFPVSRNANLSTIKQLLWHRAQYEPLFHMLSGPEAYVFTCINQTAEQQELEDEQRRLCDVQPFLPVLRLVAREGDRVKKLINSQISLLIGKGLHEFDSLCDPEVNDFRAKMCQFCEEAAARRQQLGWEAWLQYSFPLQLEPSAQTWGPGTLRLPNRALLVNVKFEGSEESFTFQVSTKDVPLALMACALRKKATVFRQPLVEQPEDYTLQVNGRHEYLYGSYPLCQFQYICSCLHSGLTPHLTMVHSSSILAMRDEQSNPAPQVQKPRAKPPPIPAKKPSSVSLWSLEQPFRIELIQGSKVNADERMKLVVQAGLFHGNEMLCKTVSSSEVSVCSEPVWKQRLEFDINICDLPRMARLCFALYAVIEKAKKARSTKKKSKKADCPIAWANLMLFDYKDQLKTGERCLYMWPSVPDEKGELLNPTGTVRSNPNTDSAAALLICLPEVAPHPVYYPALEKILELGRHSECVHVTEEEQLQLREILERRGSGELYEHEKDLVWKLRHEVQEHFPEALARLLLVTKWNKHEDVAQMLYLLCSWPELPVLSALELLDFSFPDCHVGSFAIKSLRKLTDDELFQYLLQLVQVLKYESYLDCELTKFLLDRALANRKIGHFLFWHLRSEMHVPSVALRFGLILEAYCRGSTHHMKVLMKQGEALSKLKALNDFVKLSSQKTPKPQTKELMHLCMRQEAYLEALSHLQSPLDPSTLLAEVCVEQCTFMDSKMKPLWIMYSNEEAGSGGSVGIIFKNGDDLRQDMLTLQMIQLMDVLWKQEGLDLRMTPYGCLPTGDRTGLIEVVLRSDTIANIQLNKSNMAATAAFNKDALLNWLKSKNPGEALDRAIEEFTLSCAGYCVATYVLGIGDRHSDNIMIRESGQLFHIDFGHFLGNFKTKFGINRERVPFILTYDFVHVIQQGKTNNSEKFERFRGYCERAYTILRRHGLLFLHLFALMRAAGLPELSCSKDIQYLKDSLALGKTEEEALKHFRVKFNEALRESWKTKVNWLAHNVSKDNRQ
T2 sequence (P27986 whole entry partner): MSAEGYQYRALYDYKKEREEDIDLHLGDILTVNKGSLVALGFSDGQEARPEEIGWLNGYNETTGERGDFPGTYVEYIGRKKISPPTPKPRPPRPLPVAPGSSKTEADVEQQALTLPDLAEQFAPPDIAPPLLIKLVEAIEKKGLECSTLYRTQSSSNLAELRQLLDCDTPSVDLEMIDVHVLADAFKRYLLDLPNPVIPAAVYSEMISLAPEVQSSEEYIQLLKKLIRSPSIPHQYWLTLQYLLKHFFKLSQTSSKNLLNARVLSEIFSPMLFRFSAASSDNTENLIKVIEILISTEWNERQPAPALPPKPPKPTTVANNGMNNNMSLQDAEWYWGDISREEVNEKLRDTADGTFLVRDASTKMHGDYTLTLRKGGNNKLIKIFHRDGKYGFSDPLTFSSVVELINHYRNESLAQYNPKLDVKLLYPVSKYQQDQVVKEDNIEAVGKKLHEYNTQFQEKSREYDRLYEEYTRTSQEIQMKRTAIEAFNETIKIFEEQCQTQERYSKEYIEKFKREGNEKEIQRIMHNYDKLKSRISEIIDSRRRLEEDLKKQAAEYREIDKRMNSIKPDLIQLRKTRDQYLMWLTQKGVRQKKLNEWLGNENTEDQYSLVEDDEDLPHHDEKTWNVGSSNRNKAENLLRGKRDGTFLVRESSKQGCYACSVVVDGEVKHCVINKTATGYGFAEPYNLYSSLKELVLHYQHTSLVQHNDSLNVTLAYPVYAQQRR

With `CCC(=O)N(CCn1nc(-c2cc(O)cc(F)c2)c2c(N)ncnc21)Cc1ccccc1` [Compound 7, N-{2-[4-amino-3-(3-fluoro-5-hydroxyphenyl)-1H-pyrazolo[3,4-d]pyrimidin-1-yl]ethyl}-N-benzylpropanamide], the inhibition at 0.1 µM on BTK was 19.9%; in assay [2], 66.5 ± 5.85%; on PI3Kδ [4] it was 83.5%. Also, the inhibition at 1 µM on BTK was 20.6%; on PI3Kδ [1], 96.3%. This compound also came in with a concentration for half-maximal inhibition (IC50) in assay [3] of 81.9 ± 6.5 nM.
With `Nc1ncnc2c1c(-c1cc(O)cc(F)c1)nn2CCN(Cc1ccccc1)C(=O)C1CC1` [Compound 8, N-{2-[4-amino-3-(3-fluoro-5-hydroxyphenyl)-1H-pyrazolo[3,4-d]pyrimidin-1-yl]ethyl}-N-benzylcyclopropanecarboxamide], the inhibition at 0.1 µM at BTK stood at 9.54%; at PI3Kδ [4], 70%. Also, the inhibition at 1 µM on BTK was found to be 12.2%; on PI3Kδ [1], 86.1%.
The matching figures for `C=CC(=O)N(CCn1nc(-c2cc(F)cc(OC(C)=O)c2)c2c(N)ncnc21)Cc1ccccc1` [Compound 9, 3-{4-amino-1-[2-(N-benzylprop-2-enamido)ethyl]-1H-pyrazolo [3,4-d]pyrimidin-3-yl}-5-fluorophenyl acetate]: 47.3%, 47%, 91.6% and 85.2%.
As for `Nc1ncnc2c1c(-c1cc(O)c(F)c(F)c1)nn2CCNCc1cccnc1` [Compound 23, 5-(4-amino-1-{2-[(pyridin-3-ylmethyl)amino]ethyl}-1H-pyrazolo[3,4-d]pyrimidin-3-yl)-2,3-difluorophenol], the inhibition at 0.01 µM is 12.7% on BTK and 3.31% on PI3Kδ [4]. Further, the inhibition at 0.1 µM at BTK is 60.5%; in assay [2], 39.7 ± 10.2%; on PI3Kδ [4], 66.7%.
Turning to `C=CC(=O)N(CCn1nc(-c2ccc(Oc3ccccc3)cc2)c2c(N)ncnc21)Cc1ccccc1` [Compound 24, N-{2-[4-amino-3-(4-phenoxyphenyl)-1H-pyrazolo[3,4-d]pyrimidin-1-yl]ethyl}-N-benzylprop-2-enamide], the values for the inhibition at 0.01 µM on BTK and at PI3Kδ [4] were 96.5% and -32.3%, respectively. The inhibition at 0.1 µM on BTK is 96.7%; in assay [2] it was 55.8 ± 9.1%; at PI3Kδ [4], 0.74%.
